From ChEMBL document CHEMBL4382204 (Eur J Med Chem, 2018)
Active and inactive are the calls of the source. The calls are words filed in the database; no cut-off is given here.

Columns and labels:
[1] = target: T1, Bcr/Abl fusion protein (Homo sapiens) (UniProt P00519+P11274); assay: Inhibition of BCR/ABL in human KU812 cells assessed as inhibition of ErK phosphorylation up to 0.3 uM after 1 hr by immunoblotting analysis; format: cell-based
[2] = tested on: Bcr/Abl fusion protein (Homo sapiens), P00519+P11274 [Q252H]; conditions: BaF3
Bcr/Abl fusion protein [3] = target: T2, Bcr/Abl fusion protein (Homo sapiens, UniProt P00519, T315I); assay: Inhibition of BCR/ABL T315I mutant (unknown origin) expressed in mouse BAF3 cells assessed as inhibition of ErK phosphorylation after 1 hr by immunoblotting analysis; format: cell-based
[4] = Tmax in mouse at 10 mg/kg, po by LC-MS/MS analysis; format: ADME, organism-based; conditions: in vivo
Bcr/Abl fusion protein [5] = target: T2, Bcr/Abl fusion protein; assay: Inhibition of BCR/ABL T315I mutant (unknown origin) expressed in mouse BAF3 cells assessed as inhibition of BCR/ABL T315I mutant autophosphorylation at Y245 site after 1 hr by immunoblotting analysis; format: cell-based
[6] = Toxicity in nu/nu mouse allografted with mouse BAF3 cells expressing BCR/ABL T315I mutant at 25 to 50 mg/kg, po administered daily via gavage for 14 days; format: organism-based; conditions: in vivo, 336 h
[7] = Half life in Sprague-Dawley rat at 1 mg/kg, iv by LC-MS/MS analysis; format: ADME, organism-based; conditions: in vivo
[8] = target: Tyrosine-protein kinase ABL1 (Homo sapiens, UniProt P00519); assay: Inhibition of active wild type His-tagged ABL (229 to 500 residues) (unknown origin) expressed in baculovirus infected sf9 cells using ABLtide as substrate after 1 hr by ADP-Glo assay
[9] = target: T1, Bcr/Abl fusion protein (Homo sapiens); assay: Inhibition of BCR/ABL in human K562 cells assessed as inhibition of ErK phosphorylation up to 0.3 uM after 1 hr by immunoblotting analysis; format: cell-based
K562 [10] = assay: Cell cycle arrest in human K562 cells assessed as accumulation at G0/G1 phase up to 0.3 uM after 24 hrs by propidium iodide/RNase staining based flow cytometric analysis; format: functional
BaF3 [11] = assay: Antitumor activity against mouse BAF3 cells expressing BCR/ABL T315I mutant allografted in nu/nu mouse assessed as tumor growth inhibition at 25 to 50 mg/kg, po administered via gavage for 14 days by TUNEL staining based assay; format: functional, organism-based
[12] = target: Ephrin type-A receptor 1 (Homo sapiens) (UniProt P21709); assay: Inhibition of wild type C-terminal FLAG-tagged human TEL fused EPHA1 (unknown origin) transfected in mouse BAF3 cells assessed as growth inhibition after 72 hrs by CCK8 assay; format: cell-based
Ephrin type-A receptor 1 (Homo sapiens), sequence (P21709 whole entry, the tested form may be a part): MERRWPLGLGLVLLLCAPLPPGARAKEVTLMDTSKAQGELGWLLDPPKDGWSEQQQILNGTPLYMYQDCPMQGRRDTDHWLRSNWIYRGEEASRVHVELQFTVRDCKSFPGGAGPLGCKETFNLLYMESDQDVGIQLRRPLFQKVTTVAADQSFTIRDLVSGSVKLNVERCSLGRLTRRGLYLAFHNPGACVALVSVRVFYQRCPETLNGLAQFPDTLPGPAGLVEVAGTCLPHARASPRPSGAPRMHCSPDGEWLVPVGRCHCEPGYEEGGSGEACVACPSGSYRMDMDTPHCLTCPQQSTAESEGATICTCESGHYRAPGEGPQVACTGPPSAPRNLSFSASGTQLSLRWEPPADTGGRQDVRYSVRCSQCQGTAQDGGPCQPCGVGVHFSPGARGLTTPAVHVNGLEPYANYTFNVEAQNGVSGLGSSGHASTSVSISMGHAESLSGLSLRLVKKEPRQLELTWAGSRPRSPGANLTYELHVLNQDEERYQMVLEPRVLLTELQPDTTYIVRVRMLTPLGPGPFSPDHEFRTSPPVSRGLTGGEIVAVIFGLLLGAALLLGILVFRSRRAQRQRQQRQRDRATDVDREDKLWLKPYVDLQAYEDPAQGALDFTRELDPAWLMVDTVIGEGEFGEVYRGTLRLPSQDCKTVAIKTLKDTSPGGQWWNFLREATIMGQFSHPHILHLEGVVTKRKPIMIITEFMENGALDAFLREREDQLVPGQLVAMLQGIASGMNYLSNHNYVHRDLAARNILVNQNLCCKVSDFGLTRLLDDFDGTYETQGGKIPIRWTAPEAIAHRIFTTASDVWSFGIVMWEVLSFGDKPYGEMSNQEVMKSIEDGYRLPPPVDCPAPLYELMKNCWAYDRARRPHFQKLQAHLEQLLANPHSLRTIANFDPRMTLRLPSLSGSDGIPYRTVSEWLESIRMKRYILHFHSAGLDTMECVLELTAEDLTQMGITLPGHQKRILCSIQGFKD

K562 [13] = assay: Induction of apoptosis in human K562 cells assessed as cleaved caspase-3 level up to 0.3 uM after 24 hrs by immunoblotting analysis; format: functional, cell-based
[14] = target: T1, Bcr/Abl fusion protein (Homo sapiens); assay: Inhibition of BCR/ABL in human MEG01 cells assessed as inhibition of STAT5 phosphorylation up to 0.3 uM after 1 hr by immunoblotting analysis; format: cell-based
[15] = Cmax in mouse at 1 mg/kg, iv by LC-MS/MS analysis; format: ADME, organism-based; design: dose 1 mg/kg, route intravenous; conditions: in vivo
[16] = Apparent clearance during terminal phase in Sprague-Dawley rat at 1 mg/kg, iv by LC-MS/MS analysis; format: ADME, organism-based; conditions: in vivo
[17] = target: Platelet-derived growth factor receptor alpha (Homo sapiens) (UniProt P16234); assay: Inhibition of wild type C-terminal FLAG-tagged human TEL fused PDGFRalpha (unknown origin) transfected in mouse BAF3 cells assessed as growth inhibition after 72 hrs by CCK8 assay; format: cell-based
Platelet-derived growth factor receptor alpha (Homo sapiens), sequence (P16234 whole entry, the tested form may be a part): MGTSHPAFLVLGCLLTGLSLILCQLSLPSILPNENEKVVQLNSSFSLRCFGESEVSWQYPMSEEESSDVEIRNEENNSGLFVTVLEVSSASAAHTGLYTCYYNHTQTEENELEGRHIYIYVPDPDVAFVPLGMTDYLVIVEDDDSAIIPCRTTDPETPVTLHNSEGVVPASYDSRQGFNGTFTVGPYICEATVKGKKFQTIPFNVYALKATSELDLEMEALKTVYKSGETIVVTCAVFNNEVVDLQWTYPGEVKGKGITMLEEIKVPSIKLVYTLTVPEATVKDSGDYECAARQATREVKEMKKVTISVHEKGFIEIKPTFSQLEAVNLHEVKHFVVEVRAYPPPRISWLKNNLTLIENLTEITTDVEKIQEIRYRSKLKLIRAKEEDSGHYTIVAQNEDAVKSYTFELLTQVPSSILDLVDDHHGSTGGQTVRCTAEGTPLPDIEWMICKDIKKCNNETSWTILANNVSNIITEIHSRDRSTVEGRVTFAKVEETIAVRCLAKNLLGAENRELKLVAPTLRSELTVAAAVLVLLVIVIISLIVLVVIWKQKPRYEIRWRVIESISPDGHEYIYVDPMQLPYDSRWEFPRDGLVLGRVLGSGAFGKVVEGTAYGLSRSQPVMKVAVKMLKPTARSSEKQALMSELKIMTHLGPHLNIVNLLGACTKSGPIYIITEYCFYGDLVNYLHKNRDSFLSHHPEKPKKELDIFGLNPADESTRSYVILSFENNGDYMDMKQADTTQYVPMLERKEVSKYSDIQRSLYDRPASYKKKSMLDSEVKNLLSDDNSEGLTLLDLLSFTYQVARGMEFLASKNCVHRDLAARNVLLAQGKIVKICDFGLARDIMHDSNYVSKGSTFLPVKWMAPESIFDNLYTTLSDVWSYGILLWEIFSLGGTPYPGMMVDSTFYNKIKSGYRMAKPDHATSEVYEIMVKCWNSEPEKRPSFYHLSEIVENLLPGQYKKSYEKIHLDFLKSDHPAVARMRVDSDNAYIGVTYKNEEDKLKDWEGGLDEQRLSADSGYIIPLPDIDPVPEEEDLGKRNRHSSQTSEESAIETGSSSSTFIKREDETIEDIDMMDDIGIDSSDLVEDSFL

[18] = target: Macrophage colony-stimulating factor 1 receptor (Homo sapiens) (UniProt P07333); assay: Inhibition of wild type C-terminal FLAG-tagged human TEL fused CSF1R (unknown origin) transfected in mouse BAF3 cells assessed as growth inhibition after 72 hrs by CCK8 assay; format: cell-based
Macrophage colony-stimulating factor 1 receptor (Homo sapiens), sequence (P07333 whole entry, the tested form may be a part): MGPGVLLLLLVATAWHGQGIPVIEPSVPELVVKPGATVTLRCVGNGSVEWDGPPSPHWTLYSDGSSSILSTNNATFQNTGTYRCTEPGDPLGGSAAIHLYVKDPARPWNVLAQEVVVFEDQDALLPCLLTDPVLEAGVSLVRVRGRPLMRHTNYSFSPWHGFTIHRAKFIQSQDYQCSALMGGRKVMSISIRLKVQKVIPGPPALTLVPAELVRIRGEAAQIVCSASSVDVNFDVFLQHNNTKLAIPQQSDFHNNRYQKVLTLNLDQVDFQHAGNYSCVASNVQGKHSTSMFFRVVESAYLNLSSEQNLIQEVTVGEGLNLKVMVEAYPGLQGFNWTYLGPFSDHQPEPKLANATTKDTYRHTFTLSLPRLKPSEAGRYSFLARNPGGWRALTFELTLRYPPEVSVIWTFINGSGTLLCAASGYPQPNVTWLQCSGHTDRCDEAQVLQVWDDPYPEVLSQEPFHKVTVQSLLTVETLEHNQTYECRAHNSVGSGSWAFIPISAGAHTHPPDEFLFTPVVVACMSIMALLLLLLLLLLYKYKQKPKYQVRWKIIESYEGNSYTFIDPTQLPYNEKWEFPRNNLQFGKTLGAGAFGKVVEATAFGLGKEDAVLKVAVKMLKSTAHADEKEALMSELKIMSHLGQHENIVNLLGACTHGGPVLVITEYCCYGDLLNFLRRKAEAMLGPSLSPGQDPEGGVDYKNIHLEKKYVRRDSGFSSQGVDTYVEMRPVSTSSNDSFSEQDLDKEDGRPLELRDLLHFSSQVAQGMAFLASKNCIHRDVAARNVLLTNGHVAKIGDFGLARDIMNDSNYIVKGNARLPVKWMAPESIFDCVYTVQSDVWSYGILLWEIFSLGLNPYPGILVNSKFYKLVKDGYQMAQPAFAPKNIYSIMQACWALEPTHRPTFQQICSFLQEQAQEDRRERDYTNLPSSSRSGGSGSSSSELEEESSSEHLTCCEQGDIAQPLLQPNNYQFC

[19] = MRT (0 to t) in mouse at 1 mg/kg, iv by LC-MS/MS analysis; format: ADME, organism-based; conditions: in vivo
[20] = MRT (0 to t) in mouse at 10 mg/kg, po by LC-MS/MS analysis; format: ADME, organism-based; conditions: in vivo
[21] = target: Proto-oncogene tyrosine-protein kinase receptor Ret (Homo sapiens) (UniProt P07949); assay: Inhibition of wild type C-terminal FLAG-tagged human TEL fused RET (unknown origin) transfected in mouse BAF3 cells assessed as growth inhibition after 72 hrs by CCK8 assay; format: cell-based
Proto-oncogene tyrosine-protein kinase receptor Ret (Homo sapiens), sequence (P07949 whole entry, the tested form may be a part): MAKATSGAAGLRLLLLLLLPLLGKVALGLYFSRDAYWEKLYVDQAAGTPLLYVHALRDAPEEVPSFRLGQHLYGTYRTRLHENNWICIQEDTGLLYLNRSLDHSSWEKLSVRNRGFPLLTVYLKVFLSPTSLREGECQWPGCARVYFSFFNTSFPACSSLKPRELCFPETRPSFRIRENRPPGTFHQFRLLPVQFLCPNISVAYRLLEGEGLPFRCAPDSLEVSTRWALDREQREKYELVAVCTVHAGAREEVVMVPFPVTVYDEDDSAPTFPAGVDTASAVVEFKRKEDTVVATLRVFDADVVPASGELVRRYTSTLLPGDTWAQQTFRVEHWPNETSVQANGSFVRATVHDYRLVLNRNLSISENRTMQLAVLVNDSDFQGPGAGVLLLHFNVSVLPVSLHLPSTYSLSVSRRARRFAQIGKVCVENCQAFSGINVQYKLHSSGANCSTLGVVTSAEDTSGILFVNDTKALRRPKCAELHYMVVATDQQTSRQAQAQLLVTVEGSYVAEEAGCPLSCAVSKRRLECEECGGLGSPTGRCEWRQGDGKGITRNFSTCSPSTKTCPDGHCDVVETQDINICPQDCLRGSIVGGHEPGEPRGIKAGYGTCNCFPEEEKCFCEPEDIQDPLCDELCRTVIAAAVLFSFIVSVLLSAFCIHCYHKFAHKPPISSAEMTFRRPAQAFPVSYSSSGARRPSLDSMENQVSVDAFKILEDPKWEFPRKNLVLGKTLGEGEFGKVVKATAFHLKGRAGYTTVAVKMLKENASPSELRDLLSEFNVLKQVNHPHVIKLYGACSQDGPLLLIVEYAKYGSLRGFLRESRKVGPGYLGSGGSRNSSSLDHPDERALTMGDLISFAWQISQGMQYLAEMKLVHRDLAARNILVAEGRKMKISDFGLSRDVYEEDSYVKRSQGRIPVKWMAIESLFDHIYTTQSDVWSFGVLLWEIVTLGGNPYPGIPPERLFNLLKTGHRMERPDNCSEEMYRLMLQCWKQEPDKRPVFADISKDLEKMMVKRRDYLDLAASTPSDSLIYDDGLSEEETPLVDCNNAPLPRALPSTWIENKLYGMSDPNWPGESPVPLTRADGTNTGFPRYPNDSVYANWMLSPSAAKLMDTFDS

[22] = target: T1, Bcr/Abl fusion protein (Homo sapiens); assay: (§1) Inhibition of BCR/ABL in human MEG01 cells assessed as inhibition of BCR/ABL autophosphorylation at Y245 site after 1 hr by immunoblotting analysis; format: cell-based
Bcr/Abl fusion protein [23] = target: Bcr/Abl fusion protein (Homo sapiens, UniProt P00519); assay: as §1; format: cell-based
[24] = Apparent volume of distribution during terminal phase in mouse at 10 mg/kg, po by LC-MS/MS analysis; format: ADME, organism-based; conditions: in vivo
HL-60 = assay: Antiproliferative activity in human HL60 cells after 72 hrs by CCK8 assay; format: functional; conditions: HL-60, 72 h
[25] = AUC (0 to infinity) in mouse at 10 mg/kg, po by LC-MS/MS analysis; format: ADME, organism-based; design: dose 10 mg/kg, route oral, time infinity; conditions: in vivo
Bcr/Abl fusion protein [26] = target: T2, Bcr/Abl fusion protein; assay: Inhibition of BCR/ABL T315I mutant (unknown origin) expressed in mouse BAF3 cells assessed as inhibition of STAT5 phosphorylation after 1 hr by immunoblotting analysis; format: cell-based
KU812 cell line = assay: Induction of apoptosis in human KU812 cells assessed as cleaved PARP level up to 0.3 uM after 24 hrs by immunoblotting analysis; format: functional, cell-based
OCI-AML2 = assay: Antiproliferative activity in human OCI-AML2 cells after 72 hrs by CCK8 assay; format: functional; conditions: OCI-AML2, 72 h
[27] = Tmax in Sprague-Dawley rat at 10 mg/kg, po by LC-MS/MS analysis; format: ADME, organism-based; conditions: in vivo
[28] = AUC (0 to infinity) in Sprague-Dawley rat at 10 mg/kg, po by LC-MS/MS analysis; format: ADME, organism-based; design: dose 10 mg/kg, time infinity, route oral; conditions: in vivo
[29] = tested on: Bcr/Abl fusion protein (Homo sapiens), P00519+P11274 [F317L]; conditions: BaF3
[30] = target: T1, Bcr/Abl fusion protein (Homo sapiens); assay: Inhibition of BCR/ABL in human MEG01 cells assessed as inhibition of CrkL phosphorylation up to 0.3 uM after 1 hr by immunoblotting analysis; format: cell-based
BaF3 [31] = assay: Antitumor activity against mouse BAF3 cells expressing BCR/ABL T315I mutant allografted in po dosed nu/nu mouse assessed as tumor growth inhibition administered daily via gavage for 13 days; format: functional, organism-based
[32] = AUC (0 to t) in mouse at 10 mg/kg, po by LC-MS/MS analysis; format: ADME, organism-based; conditions: in vivo
[33] = tested on: Bcr/Abl fusion protein (Homo sapiens), P00519+P11274 [T315I]; conditions: BaF3
MEC1 = assay: Antiproliferative activity in human MEC1 cells after 72 hrs by CCK8 assay; format: functional; conditions: MEC1, 72 h
[34] = MRT (0 to t) in Sprague-Dawley rat at 1 mg/kg, iv by LC-MS/MS analysis; format: ADME, organism-based; conditions: in vivo

CN1CCN(Cc2ccc(NC(=O)CCSc3ccc4c(/C=C/c5ccccn5)n[nH]c4c3)cc2C(F)(F)F)CC1
inhibition [1]: Active | GI50 [2]: 15 nM | EC50 (Bcr/Abl fusion protein [3]): < 10 nM | Tmax [4]: 1 h | EC50 (Bcr/Abl fusion protein [5]): < 10 nM | Activity [6]: Non-Toxic | half-life [7]: 2.3 h | IC50 [8]: 17 nM | inhibition [9]: Active | Activity (K562 [10]): Active | TGI (BaF3 [11]): Active | GI50 [12]: 920 nM | Activity (K562 [13]): Active | inhibition [14]: Active | Cmax [15]: 525 ng/mL | CLz/F [16]: 85 mL/min/kg | GI50 [17]: 2 nM | GI50 [18]: < 1 nM | MRT last [19]: 1.7 h | MRT last [20]: 3.3 h | GI50 [21]: 200 nM | inhibition [22]: Dose-dependent effect | EC50 (Bcr/Abl fusion protein [23]): < 10 nM | Vz [24]: 124.9 L/kg | GI50 (HL-60): 870 nM | AUC(0-inf) [25]: 230 ng·h/mL | EC50 (Bcr/Abl fusion protein [26]): < 10 nM | Activity (KU812 cell line): Active | GI50 (OCI-AML2): 1420 nM | Tmax [27]: 3.3 h | AUC(0-inf) [28]: 266 ng·h/mL | GI50 [29]: 18 nM | inhibition [30]: Active | TGI (BaF3 [31]): Dose-dependent effect | AUC(0-t) [32]: 225 ng·h/mL | GI50 [33]: 6 nM | GI50 (MEC1): 500 nM | MRT last [34]: 1.2 h
